Results reported in publication PMC8512853, “Synthesis, Bioactivity, Pharmacokinetic and Biomimetic Properties of Multi-Substituted Coumarin Derivatives” (Molecules, 2021).

Tests used:
[1] = ABTS radical scavenging assay; conditions: 6 min
Description: The ABTS radical cation scavenging assay is a decolorization assay frequently used as an antioxidant activity estimation protocol. […] The absorbance is measured at 734 nm and the antioxidant capacity is compared to a standard antioxidant solution, such as ascorbic acid.
For the evaluation of antioxidant activity, the scavenging capacities of all samples were measured via the ABTS assay, as previously described by Kontogiorgis et al. with some modifications. Briefly, an ethanolic standard ABTS solution (7 mM) was prepared by the addition of ABTS salt and potassium persulfate. […] Each sample was diluted in DMSO and tested in triplicate. The tested mixture contained 10–20 µL of sample and 990–980 µL of the ABTS solution, for a total volume of 1 ml. Blank samples contained equal amounts of DMSO instead of the coumarin analogues, and ascorbic acid was used as a reference sample for the final evaluation of the ABTS scavenging capacity. All mixtures were stored at room temperature to allow decolorization and measured after 6 min. The percentage reduction of the ABTS radical was evaluated according to the following Equation (3):(3) % Reduction=Control OD (mean)−Sample OD (mean)/Control OD (mean)×100

[2] = Hydroxyl (HO•) free radical scavenging assay (competition with DMSO)
From the text: The hydroxyl (HO^•) free radical is considered as the most toxic and reactive radical among the ROS, leading to cellular or protein damage, membrane destruction, and even to cellular death when encountered in excess concentration. In this context, the evaluation of the hydroxyl radical scavenging activity of the coumarin analogues was essential. Hydroxyl radicals are mainly produced by the Haber–Weiss reaction in the presence of iron or copper ions. In this protocol, iron-EDTA solution, which catalyzes the autooxidation of ascorbic acid, was used as the hydroxyl radical generation system. In general, the hydroxyl radicals formed oxidize the DMSO to form formaldehyde. The reaction involves the initial interaction of DMSO with the hydroxyl radicals to give methyl radicals, with the final product being formaldehyde, which is determined by Nash method. The intensity of the yellow solution formed was measured at 412 nm against a reagent blank.
For the evaluation of hydroxyl radical scavenging ability, the protocol described by Kontogiorgis et al. was used. In short, each sample was tested in quadruplicate (A, B, C, D). For A and B, 10 μL of coumarin analogs diluted in DMSO (100 mM) were added; for C and D were the respective blanks. Standards (containing DMSO solution) and blanks were all prepared in a similar manner; to the latter an equal amount (10 µL) of solvent was added instead of the tested analogues. According to the protocol described by Klein et al., standard solutions of EDTA, FeCl3, ascorbic acid, and buffer solution (pH 7.4) were also added to each of the tested mixtures. All mixtures were incubated at 37 °C for 30 min, and then 1 mL of Nash solution and […] of CCl3COOH solution were added. After a 10min incubation at 60 °C to allow the formation of the yellow mixture, the absorbance was measured at […].
The results were calculated as performance percentages in relation to the respective standards and blanks according to the following Equation (4):(4) % Scavenging ability= Mean OD(A+B)−Mean OD(C+D)/Mean OD(A+B)

[3] = test system: HaCaT cells; assay: DCF-DA assay (intracellular ROS after H2O2); assay type: cell-based, human; conditions: H2O2 treatment, 24 h; for inhibition at 100 µM: Homo sapiens, 100 μΜ, read-out: DCFDA Assay, % (100 μΜ)
From the text: In the setting of evaluating bioactive compounds in terms of antioxidant capacity in various cell lines, DCF-DA is the most widely used assay for the detection of intracellular H2O2 and oxidative stress. DCF-DA is cell-permeable and is hydrolyzed intracellularly to the DCFH carboxylate anion, which is retained in the cell.
DCFDA is a fluorescent dye that measures the activity of hydroxyl radicals, peroxyl radicals, and other reactive oxygen species (ROS) within the cell. The DCFDA analysis protocol is based on the diffusion of DCFDA into the cell. It is then deacetylated from cellular esterases to a non-fluorescent compound, which is later oxidized by ROS to 2’,7’ -dichlorofluoroscein (DCF). The produced compound (DCF) is fluorescent and is detected by fluorescence spectroscopy at 485/535 nm (excitation/emission).
For the experimental procedure a standard solution of DCF-DA (20mM) in DMSO was prepared which was stored in the dark (−20 °C) until use. In a 96-well plate, cells were cultured to a density of 3 × 10^4 cells/well.
The cells remained in the incubator (37 °C, 5% CO2) for 24 h, after which an appropriate amount of H2O2 (2 mM) was added and the dish was returned for incubation for the next 2 h. This was followed by the addition of the test substances (100μM) and incubation for 24 h. At the end of the treatment time, all wells were washed with PBS, and DCF-DA solution (working concentration: 10 μM) (in 200 μL of nutrient) was added and incubated for 40 min.
After incubation, the medium with the DCF-DA was removed and replaced with FBS-free DMEM. The measurement of the […] was made immediately after that in a plate reader at 495/530 nm (excitation/emission).
All samples were tested in triplicates, against a control (without effects), blank (without cells), and positive control (standard 100 μM Ascorbic acid solution was used).
The percentage of antioxidant capacity (%) was calculated according to the following Equation (6) evaluating the presence of ROS [42]:(6) % AI=( OD Sample 530 nm−Blank)−(OD Control 530 nm−Blank)/(OD Control 530 nm−Blank) × 100

[4] = test system: A549 cells; assay: MTT cytotoxicity assay, A549; assay type: cell-based, human; conditions: 24 h; for cytotoxicity at 100 µM: Homo sapiens, A549, 100 μΜ, read-out: Cell Toxicity A549 % (100 μΜ)
Description: (§1) Furthermore, the coumarin compounds synthesized in this study were also evaluated for their cytotoxicity against A549 (adenocarcinomic human alveolar basal epithelial cells) and A375 (human melanoma) cell lines.
(§2) This protocol was used for the evaluation of cell viability and all the cell lines. It must be noted that this assay describes the count of cells that remain alive after the treatment. For the experimental procedure a standard solution of MTT 1mg/mL in PBS was prepared which after filtration ([…] filter (Millipore, Carrigtwohill, Ireland)) was stored in the dark (4–8 °C) until use. In a 96-well plate, HaCaT, A549 and A375 cells were seeded in a number of 30 × 10^4 cells/well for each evaluation series respectively. The cells were incubated (37 °C, 5% CO2) for 24 h, followed by the addition of the tested analogues (100 μM, diluted in DMEM) and another 24-h incubation. Next, appropriate amount of MTT was added in the tested wells and the plate returned to the incubator for the next 4 h for the formation of the formazan crystals. The formazan crystals were then redissolved by adding DMSO (100 μL) and stirring lightly for 40 min, after which the absorbance was measured in a plate reader at 540 nm with a reference absorbance of 720 nm.
(§3) All samples were tested in triplicate, against a control (only cells), blank (no cells), and positive control (100 μM standard silibinin solution was used as a “cell-killing” standard).

[5] = test system: A375 cells; assay: MTT cytotoxicity assay, A375; assay type: cell-based, human; conditions: for cytotoxicity at 100 µM: Homo sapiens, A-375, 24 h, A375, 100 μΜ, read-out: Cell Toxicity A375 % (100 μΜ)
Description: as §1, §2, §3

Cc1c(-c2cccc(Cl)c2)c(=O)oc2cccc(O)c12 [Compound 4b, 3-(3-chlorophenyl)-5-hydroxy-4-methyl-chromen-2-one]
ABTS^•+ % (100 μΜ) [1]: 49.2% | HO^• % (100 μΜ) scavenging [2]: 100% | inhibition at 100 µM [3]: 27.4% | Cell Toxicity A549 % (100 μΜ) [4]: no | cytotoxicity at 100 µM [5]: 52.8%

Cc1c(-c2ccc(Cl)cc2)c(=O)oc2cccc(O)c12 [Compound 4c, 3-(4-chlorophenyl)-5-hydroxy-4-methyl-chromen-2-one]
ABTS^•+ % (100 μΜ) [1]: 65.2% | HO^• % (100 μΜ) scavenging [2]: 48.5% | DCFDA Assay, % (100 μΜ) [3]: no | cytotoxicity at 100 µM [4]: 54.5% | cytotoxicity at 100 µM [5]: 22.2%

Cc1c(-c2ccccc2F)c(=O)oc2cccc(O)c12 [Compound 4d, 3-(2-fluorophenyl)-5-hydroxy-4-methyl-chromen-2-one]
ABTS^•+ % (100 μΜ) [1]: 73.3% | HO^• % (100 μΜ) scavenging [2]: 21.9% | DCFDA Assay, % (100 μΜ) [3]: no | cytotoxicity at 100 µM [4]: 75.7% | cytotoxicity at 100 µM [5]: 11.5%

Cc1c(-c2cccc(F)c2)c(=O)oc2cccc(O)c12 [Compound 4e, 3-(3-fluorophenyl)-5-hydroxy-4-methyl-chromen-2-one]
ABTS^•+ % (100 μΜ) [1]: 69.2% | HO^• % (100 μΜ) scavenging [2]: 100% | DCFDA Assay, % (100 μΜ) [3]: no | cytotoxicity at 100 µM [4]: 52.3% | cytotoxicity at 100 µM [5]: 43.1%

Cc1c(-c2ccc(F)cc2)c(=O)oc2cccc(O)c12 [Compound 4f, 3-(4-fluorophenyl)-5-hydroxy-4-methyl-chromen-2-one]
ABTS^•+ % (100 μΜ) [1]: 64.2% | HO^• % (100 μΜ) scavenging [2]: 99.4% | DCFDA Assay, % (100 μΜ) [3]: no | cytotoxicity at 100 µM [4]: 62.5% | cytotoxicity at 100 µM [5]: 45.4%

Cc1c(-c2ccc(O)cc2)c(=O)oc2ccccc12 [Compound 4h, 3-(4-hydroxyphenyl)-4-methyl-chromen-2-one]
ABTS^•+ % (100 μΜ) [1]: 8.6% | HO^• % (100 μΜ) scavenging [2]: 72.2% | DCFDA Assay, % (100 μΜ) [3]: no | cytotoxicity at 100 µM [4]: 33.7% | cytotoxicity at 100 µM [5]: 12.6%

Cc1c(-c2ccc(O)cc2)c(=O)oc2ccc(Br)cc12 [Compound 4i, 6-bromo-3-(4-hydroxyphenyl)-4-methyl-chromen-2-one]
ABTS^•+ % (100 μΜ) [1]: no | HO^• % (100 μΜ) scavenging [2]: 100% | inhibition at 100 µM [3]: 100% | cytotoxicity at 100 µM [4]: 21.7% | cytotoxicity at 100 µM [5]: 6.48%

Cc1c(-c2ccc(O)cc2)c(=O)oc2ccc(Cl)cc12 [Compound 4j, 6-chloro-3-(4-hydroxyphenyl)-4-methyl-chromen-2-one]
ABTS^•+ % (100 μΜ) [1]: no | HO^• % (100 μΜ) scavenging [2]: 100% | inhibition at 100 µM [3]: 2.1% | cytotoxicity at 100 µM [4]: 33.5% | cytotoxicity at 100 µM [5]: 11.9%

Cc1c(-c2ccc(O)cc2)c(=O)oc2c(Br)cc(Br)cc12 [Compound 4k, 6,8-dibromo-3-(4-hydroxyphenyl)-4-methyl-chromen-2-one]
ABTS^•+ % (100 μΜ) [1]: 27.8% | HO^• % (100 μΜ) scavenging [2]: 100% | DCFDA Assay, % (100 μΜ) [3]: no | cytotoxicity at 100 µM [4]: 66.5% | Cell Toxicity A375 % (100 μΜ) ([5]; 24 h): no
